According to patent US20110117209A1 (priority 2008, published 2011):
Several values for one entry are separate records, joined by “and”; a condition that tells them apart may be missing. Equal values may be shown once. Read-outs that look alike come from different tables or passages of the source.

Assays:
Staphylococcus aureus = assay type: cell-based
[1] = assay type: physicochemical

Compound | activity along EN 13727 (Active/Inefficient) (Staphylococcus aureus) | hydrogen peroxide concentration ([1]; T0) [%] | hydrogen peroxide concentration ([1]; T = 15 min) [%] | hydrogen peroxide concentration ([1]; T = 24 h) | hydrogen peroxide concentration ([1]; T = 72 h) | activity along EN 13727, log reduction (Staphylococcus aureus) [log]
O=S(=O)([O-])[O-].[Cu+2] [CuSO4, copper sulfate] | Inefficient | – | – | – | – | –
sodium alkylsulfate [Sodium alkyl (dodecyl) sulfate] | – | 7.6 | 7.6 | 7.6% | 7.4% and 7.6% | –
sodium alkylethersulfate | – | 7.6 | 7.6 | 7.3% and 7.6% | 6.9% and 7.6% | –
OO [H2O2, hydrogen peroxide] | Active | – | – | – | – | >5
